Values after ≈ are worked out from the molar mass of the structure shown. Where two headings read alike, the source gives them in different places.
Key:
[1] = tested on: Stenotrophomonas maltophilia; assay: Efficacy data MIC and MBC (Table 7); type: cell-based; settings: isolate SM AH08
[2] = tested on: Escherichia coli; assay: Efficacy data MIC and MBC (Table 7); type: cell-based
[3] = tested on: Alcaligenes xylosoxidans; assay: Efficacy data MIC and MBC (Table 7); type: cell-based
[4] = tested on: Pseudomonas aeruginosa; assay: Efficacy data MIC and MBC (Table 7); type: cell-based
[5] = tested on: Yersinia pestis; assay: microbe, parasite or virus in culture; type: cell-based
[6] = tested on: Methicillin resistant Staphylococcus aureus (MRSA); assay: Efficacy data MIC and MBC (Table 7); type: cell-based
[7] = solubility; settings: 37: bromide salt; 20a, 20b: bromide salts
[8] = tested on: P. aeruginosa (ATCC 9027); assay: MIC test in LB broth comparing AgNO3 and complex 106; type: cell-based; parameters: key: +=growth; −=no growth
[9] = tested on: Escherichia coli
[10] = tested on: Staphylococcus aureus; settings: Day 1
[11] = tested on: S. aureus (ATCC 6538); assay: MIC test in LB broth comparing AgNO3 and complex 106; type: cell-based; parameters: key: +=growth; −=no growth
[12] = tested on: E. coli (ATCC 8739); assay: as above; type: cell-based; parameters: key: +=growth; −=no growth
[13] = tested on: Pseudomonas aeruginosa
[14] = tested on: Pseudomonas aeruginosa; type: cell-based; settings: 0.5% solution, 20 μL on 6 mm filter paper disc, over night
Protocol: (§1) In this test, a filter paper disc of 6 mm diameter was soaked with 20 μL of a silver compound of known concentration, and placed over a lawn of an organism in the agar plate. The diameter of the area in which growth of the organism is inhibited by the test solution was measured after an over night incubation as a measure of the relative antimicrobial activity of the silver compounds. The test organisms were Escherichia coli, Staphylococcus aureus, and Pseudomonas aeruginosa.

[15] = tested on: Staphylococcus aureus; type: cell-based; settings: 0.5% solution, 20 μL on 6 mm filter paper disc, over night
Protocol: as §1

[16] = tested on: Escherichia coli; type: cell-based; settings: 0.5% solution, 20 μL on 6 mm filter paper disc, over night
Protocol: as §1

[17] = tested on: Escherichia coli, Staphylococcus aureus, and Pseudomonas aeruginosa; assay: agar plates overlay method, summary of Table 2; type: cell-based
Protocol: as §1, with “The usefulness of the compounds represented by Formulas 103 and 55 as antimicrobial agents was evaluated. In” for “In”

[18] = stability (air, light, water, chloride, storage); settings: 37: bromide salt; 20a, 20b: bromide salts
[19] = Day 1, 1DF: AgNO3 1731.18, 106 1675.74 μg/mL
[20] = Day 1, 2DF: AgNO3 865.59, 106 837.87 μg/mL
[21] = Day 1, 3DF: AgNO3 432.79, 106 418.94 μg/mL
[22] = Day 1, 4DF: AgNO3 216.40, 106 209.47 μg/mL
[23] = Day 1, undiluted: AgNO3 0.50 wt/V % (3462.35 μg/mL), 106 1.38 wt/V % (3341.48 μg/mL)
[24] = Day 2, 1DF: AgNO3 1731.18, 106 1675.74 μg/mL
[25] = Day 2, 2DF: AgNO3 865.59, 106 837.87 μg/mL
[26] = Day 2, 3DF: AgNO3 432.79, 106 418.94 μg/mL
[27] = Day 2, 4DF: AgNO3 216.40, 106 209.47 μg/mL
[28] = Day 2, undiluted: AgNO3 0.50 wt/V % (3462.35 μg/mL), 106 1.38 wt/V % (3341.48 μg/mL)
[29] = Day 1, supernatant undiluted (Ag: 103 1186, 105 1125, AgN03 3176)
[30] = Day 2, supernatant undiluted (Ag: 103 1186, 105 1125, AgN03 3176)

Compound: NC[C@H]1O[C@H](O[C@H]2[C@H](O)[C@@H](O[C@H]3O[C@H](CO)[C@@H](O)[C@H](N)[C@H]3O)[C@H](N)C[C@@H]2N)[C@H](N)C[C@@H]1O [Tobramycin, reference compound]
- MBC ([1]; Stenotrophomonas maltophilia, read-out: MBC): 20 mg/L (≈ 42.8 µM)
- MIC ([1]; Stenotrophomonas maltophilia, read-out: MIC): 8 mg/L (≈ 17.1 µM)
- MBC ([2]; Escherichia coli, isolate J53, read-out: MBC): 1 mg/L (≈ 2.14 µM)
- MIC ([2]; Escherichia coli, isolate J53, read-out: MIC): 1 mg/L (≈ 2.14 µM)
- MBC ([2]; isolate J53 + pMG101): 1 mg/L
- MIC ([2]; isolate J53 + pMG101): 1 mg/L
- MIC ([3]; Achromobacter xylosoxidans, isolate AX RE05, read-out: MIC): > 20 mg/L
- MBC ([3]; Achromobacter xylosoxidans, isolate AX 22, read-out: MBC): > 20 mg/L
- MIC ([3]; Achromobacter xylosoxidans, isolate AX 22, read-out: MIC): 20 mg/L (≈ 42.8 µM)
- MBC ([3]; isolate AX RE05): >20 mg/L
- MBC ([4]; Pseudomonas aeruginosa, isolate PA 01-V, read-out: MBC): > 20 mg/L
- MIC ([4]; Pseudomonas aeruginosa, isolate PA 01-V, read-out: MIC): 15 mg/L (≈ 32.1 µM)
- MBC ([4]; Pseudomonas aeruginosa, isolate PA HP3, read-out: MBC): 8 mg/L (≈ 17.1 µM)
- MIC ([4]; Pseudomonas aeruginosa, isolate PA HP3, read-out: MIC): 4 mg/L (≈ 8.56 µM)
- MBC ([4]; Pseudomonas aeruginosa, isolate PA LF05, read-out: MBC): 1 mg/L (≈ 2.14 µM)
- MIC ([4]; Pseudomonas aeruginosa, isolate PA LF05, read-out: MIC): 0.5 mg/L (≈ 1.07 µM)
- MBC ([4]; Pseudomonas aeruginosa, isolate PA M57-15, read-out: MBC): 1 mg/L (≈ 2.14 µM)
- MIC ([4]; Pseudomonas aeruginosa, isolate PA M57-15, read-out: MIC): 0.5 mg/L (≈ 1.07 µM)
- MBC ([4]; Pseudomonas aeruginosa, isolate PA RR05, read-out: MBC): 1 mg/L (≈ 2.14 µM)
- MIC ([4]; Pseudomonas aeruginosa, isolate PA RR05, read-out: MIC): 0.5 mg/L (≈ 1.07 µM)
- MBC ([5]; Yersinia pestis): 0.25 mg/L (≈ 0.535 µM)
- MIC ([5]; Yersinia pestis): 0.25 mg/L (≈ 0.535 µM)
- MBC ([6]; Staphylococcus aureus, MRSA, isolate SA LL06, read-out: MBC): > 20 mg/L
- MIC ([6]; Staphylococcus aureus, MRSA, isolate SA LL06, read-out: MIC): > 20 mg/L
- MBC ([6]; isolate SA EH06): >20 mg/L
- MIC ([6]; isolate SA EH06): >20 mg/L

Compound: OCCN1C=CN(CN2C=CN(CCO)C2)C1 [Formula 13]
- solubility in water / aqueous media [7]: water soluble

Compound: silver nitrate [AgNO3, reference compound]
- growth / no growth [8, 19]: −
- growth / no growth [8, 20]: −
- growth / no growth [8, 21]: −
- growth / no growth [8, 22]: −
- growth / no growth [8, 23]: −
- growth / no growth [8, 24]: −
- growth / no growth [8, 25]: −
- growth / no growth [8, 26]: −
- growth / no growth [8, 27]: −
- growth / no growth [8, 28]: −
- growth(+) or no growth(−) [9, 29]: −
- growth(+) or no growth(−) ([9]; Day 1, supernatant x 1DF): +
- growth(+) or no growth(−) ([9]; Day 1, supernatant x 2DF): +
- growth(+) or no growth(−) ([9]; Day 1, supernatant x 3DF): +
- growth(+) or no growth(−) ([9]; Day 1, supernatant x 4DF): +
- growth(+) or no growth(−) [9, 30]: +
- growth(+) or no growth(−) ([10]; supernatant undiluted (Ag: 103 1186, 105 1125, AgN03 3176)): +
- growth(+) or no growth(−) ([10]; supernatant x 1DF): +
- growth(+) or no growth(−) ([10]; supernatant x 2DF): +
- growth(+) or no growth(−) ([10]; supernatant x 3DF): +
- growth(+) or no growth(−) ([10]; supernatant x 4DF): +
- growth / no growth [11, 19]: −
- growth / no growth [11, 20]: −
- growth / no growth [11, 21]: −
- growth / no growth [11, 22]: −
- growth / no growth [11, 23]: −
- growth / no growth [11, 24]: −
- growth / no growth [11, 25]: −
- growth / no growth [11, 26]: −
- growth / no growth [11, 27]: +
- growth / no growth [11, 28]: −
- growth / no growth [12, 19]: −
- growth / no growth [12, 20]: −
- growth / no growth [12, 21]: −
- growth / no growth [12, 22]: −
- growth / no growth [12, 23]: −
- growth / no growth [12, 24]: −
- growth / no growth [12, 25]: −
- growth / no growth [12, 26]: −
- growth / no growth [12, 27]: +
- growth / no growth [12, 28]: −
- growth(+) or no growth(−) [13, 29]: −
- growth(+) or no growth(−) ([13]; Day 1, supernatant x 1DF): +
- growth(+) or no growth(−) ([13]; Day 1, supernatant x 2DF): +
- growth(+) or no growth(−) ([13]; Day 1, supernatant x 3DF): +
- growth(+) or no growth(−) ([13]; Day 1, supernatant x 4DF): +
- growth(+) or no growth(−) [13, 30]: +
- Diameter of Inhibited Area [14]: 11 mm
- Diameter of Inhibited Area [15]: 10.88 mm
- Diameter of Inhibited Area [16]: 11.38 mm

Compound: CC(C)Cc1ccc(C(C)C(=O)[O][Ag][c]2n(C)c3c(=O)n(C)c(=O)n(C)c3[n+]2C)cc1 (stereo not drawn) [SCC1-IBU]
- MBC [1]: 2 mg/L
- MIC [1]: 1 mg/L
- MBC ([2]; isolate J53): 0.5 mg/L
- MIC ([2]; isolate J53): 0.5 mg/L
- MBC ([2]; isolate J53 + pMG101): >20 mg/L
- MIC ([2]; isolate J53 + pMG101): >20 mg/L
- MBC ([3]; isolate AX 22): 2 mg/L
- MIC ([3]; isolate AX 22): 0.5 mg/L
- MBC ([3]; isolate AX RE05): 2 mg/L
- MIC ([3]; isolate AX RE05): 1 mg/L
- MBC ([4]; isolate PA 01-V): 6 mg/L
- MIC ([4]; isolate PA 01-V): 2 mg/L
- MBC ([4]; isolate PA HP3): 2 mg/L
- MIC ([4]; isolate PA HP3): 0.25 mg/L
- MBC ([4]; isolate PA LF05): 1 mg/L
- MIC ([4]; isolate PA LF05): 1 mg/L
- MBC ([4]; isolate PA M57-15): 2 mg/L
- MIC ([4]; isolate PA M57-15): 1 mg/L
- MBC ([4]; isolate PA RR05): 2 mg/L
- MIC ([4]; isolate PA RR05): 0.25 mg/L
- MBC ([5]; isolate YP1-1CO92-LCR-): 2 mg/L
- MIC ([5]; isolate YP1-1CO92-LCR-): 0.5 mg/L
- MBC ([6]; isolate SA EH06): 4 mg/L
- MIC ([6]; isolate SA EH06): 2 mg/L
- MBC ([6]; isolate SA LL06): 6 mg/L
- MIC ([6]; isolate SA LL06): 2 mg/L

Compound: CC(=O)[O][Ag][c]1n(C)c2c(=O)n(C)c(=O)n(C)c2[n+]1C [SCC1]
- MBC [1]: 8 mg/L
- MIC [1]: 4 mg/L
- MBC ([2]; isolate J53): 1 mg/L
- MIC ([2]; isolate J53): 1 mg/L
- MBC ([2]; isolate J53 + pMG101): >20 mg/L
- MIC ([2]; isolate J53 + pMG101): >20 mg/L
- MBC ([3]; isolate AX 22): 2 mg/L
- MIC ([3]; isolate AX 22): 0.5 mg/L
- MBC ([3]; isolate AX RE05): 8 mg/L
- MIC ([3]; isolate AX RE05): 4 mg/L
- MBC ([4]; isolate PA 01-V): 2 mg/L
- MIC ([4]; isolate PA 01-V): 1 mg/L
- MBC ([4]; isolate PA HP3): 8 mg/L
- MIC ([4]; isolate PA HP3): 4 mg/L
- MBC ([4]; isolate PA LF05): 1 mg/L
- MIC ([4]; isolate PA LF05): 1 mg/L
- MBC ([4]; isolate PA M57-15): 4 mg/L
- MIC ([4]; isolate PA M57-15): 2 mg/L
- MBC ([4]; isolate PA RR05): 1 mg/L
- MIC ([4]; isolate PA RR05): 0.5 mg/L
- MBC ([5]; isolate YP1-1CO92-LCR-): 1 mg/L
- MIC ([5]; isolate YP1-1CO92-LCR-): 0.5 mg/L
- MBC ([6]; isolate SA EH06): 20 mg/L
- MIC ([6]; isolate SA EH06): 6 mg/L
- MBC ([6]; isolate SA LL06): 10 mg/L
- MIC ([6]; isolate SA LL06): 8 mg/L

Compound: OCCCN1C=CN(Cc2cccc(CN3C=CN(CCCO)C3)n2)C1 [Compound 102]
- antimicrobial properties (Table 2 summary) [17]: no antimicrobial activity
- Diameter of Inhibited Area [14]: 6 mm
- Diameter of Inhibited Area [15]: 6 mm
- Diameter of Inhibited Area [16]: 6 mm

Compound: CN1c2c(n(C)c(=O)n(C)c2=O)N(C)[CH]1[Ag][CH]1N(C)c2c(n(C)c(=O)n(C)c2=O)N1C (stereo not drawn) [Formula 97a]
- stability in water [18]: stable in water for five days

Compound: OCCN1C=CN(Cc2cccc(CN3C=CN(CCO)C3)n2)C1 [Compound 101]
- antimicrobial properties (Table 2 summary) [17]: no antimicrobial activity
- Diameter of Inhibited Area [14]: 6 mm
- Diameter of Inhibited Area [15]: 6 mm
- Diameter of Inhibited Area [16]: 6 mm

— patent US8648205B2, “Metal complexes of N-heterocyclic carbenes” (The University of Akron, priority 2003, dated 2014)
